This note sets out measurements from US6878742B2, “Heterocyclic sulfonamide inhibitors of beta amyloid production” (Wyeth, priority 2000, dated 2005).

Several values for one entry are separate records, joined by “and”; a condition that tells them apart may be missing. Equal entries are not always repeated.

The subject of the assay is amyloid precursor protein (APP) proteolysis. Description: Repressor Release Assay (RRA). It is filed as cell-based. The following applies: luciferase activity over diluent control; for fold induction at 10 µg/mL / fold induction at 20 µg/mL: read-out: APPI Fold Increase. On the procedure:
The beta amyloid inhibitory activity of many of the compounds of the present invention has been determined using the Repressor Release Assay (RRA). See, Table 23 below. A compound is considered active in RRA if it leads to at least a 1.5 fold increase in luciferase activity at 20 μM and is non-toxic.
The compounds generated as described in Examples 1 through 220 were tested in the RRA in accordance with published techniques [Shuey, D. J., Sheiffele, P., Jones, D., Cockett, M. I., and Quinet, E. M. (1999), “Repressor release: a useful tool for monitoring amyloid precursor protein (APP) proteolysis in mammalian cells”, Society for Neuroscience Abstracts, Vol. 25, 29th Annual Meeting of Society for Neuroscience, Miami Beach, Fla., Oct. 23-28, 1999]. Briefly, this assay is performed as follows.
CHO-K1 cells are cultured in whole DMEM media (DMEM—High Glucose with 10% fetal bovine serum, 1% Non-essential Amino Acids, and 1% Penicillin-Streptomycin) at 37° C. with 5% CO2. Two million cells are plated into 10-cm dishes 24 hrs prior to transfection.
Transient transfections are completed as recommended by Gibco BRL using their Lipofectamine Plus system. First, 6 μg of pRSVO-luc and 6 μg of APP-lacI construct DNA are added to 460 μL Opti-Mem transfection media and incubated with 30 μL Plus reagent for 15 minutes. Then, a lipid mixture of 40 μL Lipofectamine reagent and 460 μL Opti-Mem transfection media is incubated with the DNA-Plus reagent mixture for 15 minutes. During the DNA-lipid incubation, the CHO-K1 cells are washed once and covered in 5.0 mL DMEM media without Penicillin-Streptomycin. The DNA-lipid preparation is then layered onto these cells and incubated at 37° C. overnight.
One and one half million transfected cells per well (100 μL total volume) are plated into sterile, opaque Packard 96-well Cultur-Plates in clear DMEM whole media (DMEM—without phenol red) and incubated at 37° C. with 5% CO2 for 3-5 hours.
Compounds are diluted using two different protocols; one protocol is used for compounds supplied neat (weighed powder in vial) and the other protocol is used for compounds supplied in solution (20 mM in DMSO in 96-well plates). For both protocols, 25 mM Hepes and 25 mM Hepes/1% DMSO are prepared fresh to be used as diluent. The Hepes/DMSO is used as the diluent control on all experimental plates.
The following table depicts the steps for compound dilution (please note that the last step is the addition of compound to cells/media in tissue culture plate):
Because some compounds arrive in 96-well format at 20 mM, the following represents the protocol for their dilution (note that an average molecular weight of these compounds was used to calculate these dilutions and as above, the last step is the addition of compound to cells/media in tissue culture plate):
Once compounds are diluted, they are applied in duplicate on cells in tissue culture plates (prepared above). Cells are incubated with compound at 37° C. with 5% CO2 for an additional 36-48 hours.
Luciferase assays (LucLite reagent, Packard) are performed and are read on a Packard TopCount instrument. Media is removed from each 96-well plate and replaced with 100 μL PBS per well (with Mg^2+ and Ca^2+). An equal volume (100 μL) of the LucLite lysis/substrate buffer is added to each well and the plates are sealed and mixed in the dark on a rotary shaker for 15-30 minutes at room temperature. Luciferase readings are then taken on the TopCount instrument. Measurements are expressed as relative light units (RLU) and are calculated and analyzed in MS Excel as follows.
A compound is considered active in RRA if it leads to at least a 1.5 fold increase in luciferase activity at 20 μM and is non-toxic, as determined by loss of signal (≦0.75 fold increase). Fold increase is the amount of luciferase activity (measured in relative light units) over diluent control. SEM represents the standard error of the mean for fold increase (not shown).

Consider `CC[C@H](C)[C@H](NS(=O)(=O)c1cccs1)C(O)c1ccc(N(C)C)cc1` (stereo partly drawn) [Example 154, N-{(S,S)-1-[[4-(dimethylamino)phenyl](hydroxy)methyl]-2-methylbutyl}thiophene-2-sulfonamide], for which, under “Conc 10 μg/mL”, the fold induction at 10 µg/mL is 4.23.

As to `O=S(=O)(N[C@H](CO)CSCc1ccccc1)c1ccc(Br)s1` [Example 114, N-[R-2-(benzylthio)-1-(hydroxymethyl)ethyl]-5-bromothiophene-2-sulfonamide], the fold induction at 20 µg/mL (Conc 20 μg/mL) stood at 1.8.

Consider `CC[C@@H](C)[C@@H](CO)NS(=O)(=O)c1ccc(Cl)s1` [Example 16], for which the “APPI Fold Increase” value by setting is: (Conc 0.3 μg/mL) 1.7 fold; (Conc 1 μg/mL) 1.9 fold and 2.56 fold; (Conc 3 μg/mL) 3.1 fold and 4.47 fold; (Conc 10 μg/mL) 4.19 fold and 3.2 fold.

For `CCCCC(CO)NS(=O)(=O)c1ccc(Br)s1` (racemic) [Example 106, 5-bromo-N-[1-(hydroxymethyl)pentyl]thiophene-2-sulfonamide], the fold induction at 20 µg/mL (Conc 20 μg/mL) came out at 2.4. Consider `CC[C@H](C)[C@@H](CO)NS(=O)(=O)c1ccc(Br)s1` [Example 2], for which the “APPI Fold Increase” value was 1.79 fold and 1.54 fold (Conc 1 μg/mL); 2.96 fold and 2.34 fold (Conc 3 μg/mL); 4.26 fold and 3.2 fold and 3.06 fold (Conc 10 μg/mL); 4.5 fold and 5.5 fold and 6.3 fold (Conc 20 μg/mL). Regarding `C=CCCC(O)[C@@H](NS(=O)(=O)c1ccc(Cl)s1)[C@@H](C)CC` (stereo partly drawn) [Example 137, 5-chloro-N-{(S)-2-hydroxy-1-[(S)-1-methylpropyl]hex-5-enyl}thiophene-2-sulfonamide], for the setting “Conc 10 μg/mL”, the fold induction at 10 µg/mL is 1.96.

Take `O=S(=O)(N[C@H](CO)C1CCC(NCc2ccncc2)CC1)c1ccc(Cl)s1` (stereo partly drawn) [Example 218, 5-chloro-N-[(S)-2-hydroxy-1-(4-(4-pyridyl)methylaminocyclohexyl)ethyl]thiophene-2-sulfonamide]: the fold induction at 20 µg/mL (Conc 20 μg/mL) came to 2.8. In the case of `CC[C@H](C)[C@@H](CO)NS(=O)(=O)c1ccc(I)s1` [Example 207, N-[(1S,2S)-1-(Hydroxymethyl)-2-methylbutyl]-5-iodo-2-thiophenesulfonamide], under “Conc 20 μg/mL”, the fold induction at 20 µg/mL came out at 5.6. Regarding `CCC[C@H](CC)[C@@H](CO)NS(=O)(=O)c1ccc(Br)s1` [Example 60, 5-bromo-N-[(1S,2S)-2-ethyl-1-(hydroxymethyl)pentyl]thiophene-2-sulfonamide], for the setting “Conc 20 μg/mL”, the fold induction at 20 µg/mL was found to be 6.9. `CCCCC[C@H](C)[C@@H](CO)NS(=O)(=O)c1ccc(Cl)s1` [Example 39, 5-chloro-N-[(1S,2S)-1-(hydroxymethyl)-2-methylheptyl]thiophene-2-sulfonamide]: where the note is “Conc 20 μg/mL”, the fold induction at 20 µg/mL came out at 5.7. Regarding `CCCCC[C@H](CC(C)C)[C@@H](CO)NS(=O)(=O)c1ccc(Br)s1` [Example 63, 5-bromo-N-[(1S,2R)-1-(hydroxymethyl)-2-isobutylheptyl]thiophene-2-sulfonamide], under “Conc 20 μg/mL”, the fold induction at 20 µg/mL came out at 3.3. In the case of `O=S(=O)(N[C@H](CO)C1CCC(NCc2ccccc2)CC1)c1ccc(Cl)s1` (stereo partly drawn) [Example 211, 5-Chloro-N-[(S)-2-hydroxy-1-(4-benzylaminocyclohexyl)ethyl]thiophene-2-sulfonamide], where the note is “Conc 20 μg/mL”, the fold induction at 20 µg/mL came out at 1.9. On to `CCCCCC[C@@H](CCCCC)[C@@H](CO)NS(=O)(=O)c1ccc(Br)s1` [Example 65, 5-bromo-N-[(1S,2R)-1-(hydroxymethyl)-2-pentyloctyl]thiophene-2-sulfonamide], for which the fold induction at 20 µg/mL (Conc 20 μg/mL) was determined as 1.9.

As to `CC[C@@H](C)[C@@H](CO)NS(=O)(=O)c1ccc(Br)s1` [Example 17], the “APPI Fold Increase” value is, setting by setting: (Conc 1 μg/mL) 2.38 fold; (Conc 3 μg/mL) 3.47 fold; (Conc 10 μg/mL) 3.29 fold; (Conc 20 μg/mL) 6.1 fold and 3.5 fold. In the case of `COc1ccc([C@@H](C)[C@@H](CO)NS(=O)(=O)c2ccc(Cl)s2)cc1` [Example 28, 5-chloro-N-[(1S,2R)-1-(hydroxymethyl)-2-(4-methoxyphenyl)propyl]thiophene-2-sulfonamide], the fold induction at 20 µg/mL (Conc 20 μg/mL) is 7. With `CC(=O)N1CCC(CO)(NS(=O)(=O)c2ccc(Cl)s2)CC1` [Example 203, N-[1-Acetyl-4-(hydroxymethyl)piperidin-4-yl]-5-chlorothiophene-2-sulfonamide], the fold induction at 20 µg/mL (Conc 20 μg/mL) turned out to be 1.5. In the case of `CC[C@H](C)[C@H](NS(=O)(=O)c1ccc(Cl)s1)C(O)(c1cccc2ccccc12)c1cccc2ccccc12` [Example 172, 5-chloro-N-((S,S)-1-{hydroxy[di(1-naphthyl)]methyl}-2-methylbutyl)thiophene-2-sulfonamide], the fold induction at 10 µg/mL (Conc 10 μg/mL) is 2. As for `CCC(CC)[C@@H](C=O)NS(=O)(=O)c1ccc(Cl)s1` [Example 221A, 5-Chloro-N-[(S)-2-ethyl-1-formylbutyl]thiophene-2-sulfonamide], the fold induction at 20 µg/mL (Conc 20 μg/mL) was 4.9. Consider `C=CCC(O)[C@@H](NS(=O)(=O)c1cccs1)[C@@H](C)CC` (stereo partly drawn) [Example 147, N-{(S)-2-hydroxy-1-[(S)-1-methylpropyl]pent-4-enyl}thiophene-2-sulfonamide], for which, where the note is “Conc 10 μg/mL”, the fold induction at 10 µg/mL was 2.04.

With `CC(NC1CCCC1)[C@@H](CO)NS(=O)(=O)c1ccc(Cl)s1` (stereo partly drawn) [Example 86, 5-chloro-N-[(1S)-2-(cyclopentylamino)-1-(hydroxymethyl)propyl]-2-thiophenesulfonamide], for the setting “Conc 20 μg/mL”, the fold induction at 20 µg/mL came to 20. Still for that read-out and setting: the result for `C[C@@H](O)[C@@H](CO)NS(=O)(=O)c1ccc(Cl)s1` [Example 103, 5-chloro-N-[(R,R)-2-hydroxy-1-(hydroxymethyl)propyl]thiophene-2-sulfonamide] reads 2.3; that for `O=S(=O)(N[C@H](CO)c1ccccc1)c1ccc(Br)s1` [Example 104, 5-bromo-N-[(S)-2-hydroxy-1-phenylethyl]thiophene-2-sulfonamide], 2.5; that for `CCC(NC)[C@@H](CO)NS(=O)(=O)c1ccc(Cl)s1` (stereo partly drawn) [Example 79, 5-Chloro-N-[(1S)-1-(hydroxymethyl)-2-(methylamino)butyl]thiophene-2-sulfonamide], 1.6. As to `CC(C)C[C@@H](c1cccnc1)[C@@H](CO)NS(=O)(=O)c1ccc(Br)s1` [Example 69, 5-bromo-N-[(1S,2S)-1-(hydroxymethyl)-4-methyl-2-pyridin-3-ylpentyl]thiophene-2-sulfonamide], the fold induction at 20 µg/mL (Conc 20 μg/mL) is 1.5. For the molecule `O=S(=O)(N[C@H](CO)c1ccccc1)c1ccc(Cl)s1` [Example 89, 5-Chloro-N-[(S)-2-hydroxy-1-phenylethyl]thiophene-2-sulfonamide], for the setting “Conc 20 μg/mL”, the fold induction at 20 µg/mL is 2.3. Turning to `CCC[C@H](C)[C@@H](CO)NS(=O)(=O)c1ccc(Cl)s1` [Example 33, 5-chloro-N-[(1S,2S)-1-(hydroxymethyl)-2-methylpentyl]thiophene-2-sulfonamide], the fold induction at 20 µg/mL (Conc 20 μg/mL) came out at 6.5. Take `CC#CC(O)[C@@H](NS(=O)(=O)c1cccs1)[C@@H](C)CC` (stereo partly drawn) [Example 152, N-{(S)-2-hydroxy-1-[(S)-1-methylpropyl]pent-3-ynyl}thiophene-2-sulfonamide]: under “Conc 10 μg/mL”, the fold induction at 10 µg/mL worked out at 1.51. Take `O=S(=O)(NC1(CO)CC2CCC1C2)c1ccc(Cl)s1` (stereo not shown) [Example 178, 5-chloro-N-[2-(hydroxymethyl)bicyclo[2.2.1]hept-2-yl]thiophene-2-sulfonamide]: under “Conc 20 μg/mL”, the fold induction at 20 µg/mL worked out at 2.3.
